Experimental data reported in ChEMBL document CHEMBL1201862, “PubChem BioAssay data set” (2004).
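Cultured in 96-well plates, cells were exposed to test compound for 48 hours across five concentrations. At the GI50, growth is halved.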 The source made the active and inactive calls. Cut-off read from the data, not from the text of the source: active = GI50 up to about 1.1 µM and inactive = higher.

Assays:
Assay in all cases: inhibition of tumour cell growth, NCI panel, 48 h
SF-268 = tested on: SF-268
786-0 = tested on: 786-0
KM-20L2 = tested on: KM-20L2
SW-620 = tested on: SW-620
CCRF-CEM = tested on: CCRF-CEM
DLD-1 = tested on: DLD-1
HOP-62 = tested on: HOP-62
M19-MEL = tested on: M19-MEL
MOLT-4 = tested on: MOLT-4
OVCAR-5 = tested on: OVCAR-5
SK-MEL-28 = tested on: SK-MEL-28
SNB-75 = tested on: SNB-75
SNB-78 = tested on: SNB-78
UACC-62 = tested on: UACC-62
U-251 = tested on: U-251
OVCAR-8 = tested on: OVCAR-8
UO-31 = tested on: UO-31
DMS-273 = tested on: DMS-273
NCI-H522 = tested on: NCI-H522
Malme-3M = tested on: Malme-3M
TK-10 = tested on: TK-10
SF-295 = tested on: SF-295
COLO 205 = tested on: COLO 205
NCI-H23 = tested on: NCI-H23
ACHN = tested on: ACHN
IGROV-1 = tested on: IGROV-1
LXFL 529 = tested on: LXFL 529
HOP-92 = tested on: HOP-92
K562 = tested on: K562
EKVX = tested on: EKVX
SNB-19 = tested on: SNB-19
HCT-15 = tested on: HCT-15
SF-539 = tested on: SF-539
M14 = tested on: M14
RPMI-8226 = tested on: RPMI-8226
NCI-H460 = tested on: NCI-H460
NCI-H226 = tested on: NCI-H226
SK-MEL-5 = tested on: SK-MEL-5
KM12 = tested on: KM12
HCC 2998 = tested on: HCC 2998
SK-OV-3 = tested on: SK-OV-3
HL-60 = tested on: HL-60
OVCAR-4 = tested on: OVCAR-4
A549 = tested on: A549
SK-MEL-2 = tested on: SK-MEL-2
HT-29 = tested on: HT-29
UACC-257 = tested on: UACC-257
SN12C = tested on: SN12C
LOX IMVI = tested on: LOX IMVI
CAKI-1 = tested on: CAKI-1
A498 = tested on: A498
OVCAR-3 = tested on: OVCAR-3
HOP-18 = tested on: HOP-18
DMS-114 = tested on: DMS-114
RXF 393 = tested on: RXF 393
HCT-116 = tested on: HCT-116
XF498 = tested on: XF498

CCOC(=O)C(=O)Nc1nc2ccc(OC)cc2s1
GI50 (SF-268): > 100 µM (inactive) | GI50 (786-0): > 100 µM (inactive) | GI50 (KM-20L2): > 100 µM (inactive) | GI50 (SW-620): > 100 µM (inactive) | GI50 (CCRF-CEM): > 100 µM (inactive) | GI50 (DLD-1): > 100 µM (inactive) | GI50 (HOP-62): > 100 µM (inactive) | GI50 (M19-MEL): > 100 µM (inactive) | GI50 (MOLT-4): > 100 µM (inactive) | GI50 (OVCAR-5): > 100 µM (inactive) | GI50 (SK-MEL-28): > 100 µM (inactive) | GI50 (SNB-75): > 100 µM (inactive) | GI50 (SNB-78): > 100 µM (inactive) | GI50 (UACC-62): > 100 µM (inactive) | GI50 (U-251): > 100 µM (inactive) | GI50 (OVCAR-8): > 100 µM (inactive) | GI50 (UO-31): > 100 µM (inactive) | GI50 (DMS-273): > 100 µM (inactive) | GI50 (NCI-H522): > 10 µM (inactive) | GI50 (Malme-3M): > 100 µM (inactive) | GI50 (TK-10): > 100 µM (inactive) | GI50 (SF-295): > 100 µM (inactive) | GI50 (COLO 205): > 100 µM (inactive) | GI50 (NCI-H23): > 100 µM (inactive) | GI50 (ACHN): > 100 µM (inactive) | GI50 (IGROV-1): > 100 µM (inactive) | GI50 (LXFL 529): > 100 µM (inactive) | GI50 (HOP-92): > 100 µM (inactive) | GI50 (K562): > 100 µM (inactive) | GI50 (EKVX): > 100 µM (inactive) | GI50 (SNB-19): > 100 µM (inactive) | GI50 (HCT-15): > 100 µM | GI50 (SF-539): > 100 µM (inactive) | GI50 (M14): > 100 µM (inactive) | GI50 (RPMI-8226): > 100 µM (inactive) | GI50 (NCI-H460): > 100 µM (inactive) | GI50 (NCI-H226): > 100 µM (inactive) | GI50 (SK-MEL-5): > 100 µM (inactive) | GI50 (KM12): > 100 µM (inactive) | GI50 (HCC 2998): > 100 µM (inactive) | GI50 (SK-OV-3): > 100 µM (inactive) | GI50 (HL-60): > 100 µM (inactive) | GI50 (OVCAR-4): > 100 µM (inactive) | GI50 (A549): > 100 µM (inactive) | GI50 (SK-MEL-2): > 100 µM (inactive) | GI50 (HT-29): > 100 µM (inactive) | GI50 (UACC-257): > 100 µM (inactive) | GI50 (SN12C): > 100 µM (inactive) | GI50 (LOX IMVI): > 100 µM (inactive) | GI50 (CAKI-1): > 100 µM (inactive) | GI50 (A498): > 100 µM (inactive) | GI50 (OVCAR-3): > 100 µM (inactive) | GI50 (HOP-18): > 100 µM (inactive)

COc1c(Cl)cc(S(=O)O)cc1Cl
GI50 (SF-268): > 100 µM (inactive) | GI50 (CCRF-CEM): > 100 µM (inactive) | GI50 (DMS-114): > 100 µM (inactive) | GI50 (DLD-1): > 100 µM (inactive) | GI50 (HOP-62): > 100 µM (inactive) | GI50 (M19-MEL): > 100 µM (inactive) | GI50 (MOLT-4): > 100 µM (inactive) | GI50 (OVCAR-5): > 100 µM (inactive) | GI50 (SK-MEL-28): > 100 µM (inactive) | GI50 (SNB-75): > 100 µM (inactive) | GI50 (SNB-78): > 100 µM (inactive) | GI50 (UACC-62): > 100 µM (inactive) | GI50 (U-251): > 100 µM (inactive) | GI50 (UO-31): > 100 µM (inactive) | GI50 (RXF 393): > 100 µM (inactive) | GI50 (HCT-116): > 100 µM (inactive) | GI50 (NCI-H522): > 100 µM (inactive) | GI50 (Malme-3M): > 100 µM (inactive) | GI50 (TK-10): > 100 µM (inactive) | GI50 (NCI-H23): > 100 µM (inactive) | GI50 (ACHN): > 100 µM (inactive) | GI50 (LXFL 529): > 100 µM (inactive) | GI50 (K562): > 100 µM (inactive) | GI50 (EKVX): > 100 µM (inactive) | GI50 (SNB-19): > 100 µM (inactive) | GI50 (XF498): > 100 µM (inactive) | GI50 (SF-539): > 100 µM (inactive) | GI50 (M14): > 100 µM (inactive) | GI50 (NCI-H460): > 100 µM (inactive) | GI50 (KM12): > 100 µM (inactive) | GI50 (HCC 2998): > 100 µM (inactive) | GI50 (SK-OV-3): > 100 µM (inactive) | GI50 (HL-60): > 100 µM (inactive) | GI50 (OVCAR-4): > 100 µM (inactive) | GI50 (SK-MEL-2): > 100 µM (inactive) | GI50 (HT-29): > 100 µM (inactive) | GI50 (UACC-257): > 100 µM (inactive) | GI50 (SN12C): > 100 µM (inactive) | GI50 (LOX IMVI): > 100 µM (inactive) | GI50 (A498): > 100 µM (inactive) | GI50 (OVCAR-3): > 100 µM (inactive)

COc1cc([C@@H]2c3cc4c(cc3[C@@H](NC(=O)c3cccc(F)c3)C3COC(=O)[C@@H]32)OCO4)cc(OC)c1O (stereo not given in full)
GI50 (SF-268): 1.61 µM (inactive) | GI50 (786-0): 0.441 µM (active) | GI50 (KM-20L2): 1.68 µM (inactive) | GI50 (SW-620): 0.738 µM (active) | GI50 (CCRF-CEM): 0.111 µM (active) | GI50 (DMS-114): 0.607 µM (active) | GI50 (DLD-1): 2.32 µM (inactive) | GI50 (HOP-62): 0.195 µM (active) | GI50 (M19-MEL): 3.22 µM (inactive) | GI50 (MOLT-4): < 0.01 µM (active) | GI50 (OVCAR-5): 2.21 µM (inactive) | GI50 (SK-MEL-28): 2.94 µM (inactive) | GI50 (SNB-75): 1.23 µM (inactive) | GI50 (SNB-78): 15.5 µM (inactive) | GI50 (UACC-62): 0.385 µM (active) | GI50 (U-251): 0.109 µM (active) | GI50 (OVCAR-8): 1.76 µM (inactive) | GI50 (UO-31): 2.99 µM (inactive) | GI50 (RXF 393): 4.3 µM (inactive) | GI50 (HCT-116): 1.76 µM (inactive) | GI50 (DMS-273): 0.153 µM (active) | GI50 (NCI-H522): 1.4 µM (inactive) | GI50 (Malme-3M): 1.29 µM (inactive) | GI50 (TK-10): 3.35 µM (inactive) | GI50 (SF-295): 0.412 µM (active) | GI50 (COLO 205): 3.52 µM (inactive) | GI50 (NCI-H23): 0.522 µM (active) | GI50 (ACHN): 0.125 µM (active) | GI50 (IGROV-1): 1.19 µM (inactive) | GI50 (LXFL 529): 5.5 µM (inactive) | GI50 (HOP-92): 2.74 µM (inactive) | GI50 (K562): 1.61 µM (inactive) | GI50 (EKVX): 2.1 µM (inactive) | GI50 (SNB-19): 0.664 µM (active) | GI50 (HCT-15): 1.45 µM | GI50 (SF-539): 0.356 µM (active) | GI50 (M14): 1.26 µM (inactive) | GI50 (RPMI-8226): 0.466 µM (active) | GI50 (NCI-H460): < 0.01 µM (active) | GI50 (NCI-H226): 0.207 µM (active) | GI50 (SK-MEL-5): 1.14 µM (inactive) | GI50 (KM12): 1.76 µM (inactive) | GI50 (HCC 2998): 2.66 µM (inactive) | GI50 (SK-OV-3): 1.26 µM (inactive) | GI50 (HL-60): 0.111 µM (active) | GI50 (OVCAR-4): 38.5 µM (inactive) | GI50 (A549): 0.0327 µM (active) | GI50 (SK-MEL-2): 4.46 µM (inactive) | GI50 (HT-29): 2.05 µM (inactive) | GI50 (UACC-257): 7.19 µM (inactive) | GI50 (SN12C): 0.314 µM (active) | GI50 (LOX IMVI): 0.698 µM (active) | GI50 (CAKI-1): 0.646 µM (active) | GI50 (A498): 1.27 µM (inactive) | GI50 (OVCAR-3): 3.6 µM (inactive) | GI50 (HOP-18): > 100 µM (inactive)
